This experiment relates to M. tuberculosis. Kind of experiment: microbe, parasite or virus in culture. Format: cell-based. Conditions: Mycobacterium tuberculosis, 120 h; read-out: QUM (MIC80).

The source of these data is patent publication US20160185774A1, “Anti-Infective Compounds” (priority 2013, published 2016).

In brackets after ≈: the same amount, converted by molar mass.

`CCc1nc2cc(C(F)(F)F)ccn2c1C(=O)NCc1ccc(N2CCC(c3ccc(F)cc3)CC2)cc1` [Compound 4]: the MIC80 is below 1 µM.

On to `CCc1nc2ccc(Cl)cn2c1C(=O)NCc1ccc(N2CC[C@H](Oc3ccc(Cl)cc3)C2)cc1` [Compound 342], for which the MIC80 was below 1 µM.

As to `CCc1nc2cc(C(F)(F)F)ccn2c1C(=O)NCc1ccc(N2CCC(c3ccc(OC(F)(F)F)cc3)CC2)cc1` [Compound 228], the MIC80 was below 1 µM.

As for `CCc1nc2cc(F)ccn2c1C(=O)NCc1ccc(N2CCC(c3ccccc3)CC2)cc1` [Compound 166], the MIC80 was below 1 µM.

For `CCc1nc2cc(Cl)ccn2c1C(=O)NCc1ccc2nc[nH]c2c1` [Compound 276], the MIC80 is above 20 µM.

Regarding `CCc1nc2c(Cl)cccn2c1C(=O)NCc1ccc(N2CCC(c3ccc(OC(F)(F)F)cc3)CC2)cc1` [Compound 224], the MIC80 was below 1 µM.

Regarding `CCc1nc2c(OC)cccn2c1C(=O)NCc1ccc(N2CCC(c3ccc(OC(F)(F)F)cc3)CC2)cc1` [Compound 117], the MIC80 lay within 1 to 20 µM (≈ 0.553 to 11.1 µg/mL).

For `CCc1nc2ccc(C(F)(F)F)cn2c1C(=O)NCc1ccc(N2CCC(c3ccc(C(F)(F)F)cc3)CC2)cc1` [Compound 146], the MIC80 is below 1 µM.

Turning to `CCc1nc2ccc(Cl)cn2c1C(=O)NCc1ccc(C2CCN(C(=O)c3ccc(F)cc3)CC2)cc1` [Compound 243], the MIC80 is below 1 µM.

With `CCc1nc2cc(C(F)(F)F)ccn2c1C(=O)NCc1ccc(N2CCN(c3ccc(OC(F)(F)F)cc3)CC2)cc1` [Compound 203], the MIC80 was below 1 µM.

Regarding `CCc1nc2ccc(C(F)(F)F)cn2c1C(=O)NCc1ccc(N2CCN(c3ccc(OC)cc3)CC2)cc1` [Compound 109], the MIC80 is below 1 µM.

On to `CCc1nc2ccc(Cl)cn2c1C(=O)NCc1ccc(C(=O)N(C)c2ccc(F)cc2)cc1` [Compound 305], for which the MIC80 is 1 to 20 µM (≈ 0.465 to 9.3 µg/mL).

Turning to `CCc1nc2ccc(C(F)(F)F)cn2c1C(=O)NCc1ccc(N2CCC(c3ccc(Cl)cc3)CC2)cc1` [Compound 226], the MIC80 was below 1 µM.

As to `CCc1nc2c(C(F)(F)F)cccn2c1C(=O)NCc1ccc(N2CCC(c3ccc(F)cc3)CC2)cc1` [Compound 78], the MIC80 lay in the range of 1 to 20 µM (≈ 0.525 to 10.5 µg/mL).

Take `CCc1nc2c(Br)cccn2c1C(=O)NCc1ccc(N2CCC(c3ccc(C(F)(F)F)cc3)CC2)cc1` [Compound 143]: the MIC80 was in the range of 1 to 20 µM (≈ 0.585 to 11.7 µg/mL).

Take `CCc1nc2cc(Cl)ccn2c1C(=O)NCc1ccc(N2CCN(c3ccc(Cl)cc3)CC2)cc1` [Compound 194]: the MIC80 was below 1 µM.

With `CCc1nc2cc(Br)ccn2c1C(=O)NCc1ccc(N2CCN(c3ccc(C)cc3)CC2)cc1` [Compound 207], the MIC80 was below 1 µM.

With `CCc1nc2ccc(Cl)cn2c1C(=O)NCc1ccc2ncn(Cc3ccc(OC(F)(F)F)cc3)c2c1` [Compound 274], the MIC80 fell in the range of 1 to 20 µM (≈ 0.528 to 10.6 µg/mL).

In the case of `CCc1nc2ccccn2c1C(=O)NCc1ccc(N2CCC(c3ccc(C(F)(F)F)cc3)CC2)cc1` [Compound 230], the MIC80 is below 1 µM.

With `CCc1nc2ccc(Cl)cn2c1C(=O)NCc1ccc(N2CCC(c3ccc(C(=O)OC)cc3)CC2)cc1` [Compound 344], the MIC80 is below 1 µM.

In the case of `CCc1nc2c(OC)cccn2c1C(=O)NCc1ccc(N2CCC(c3ccc(F)cc3)CC2)cc1` [Compound 151], the MIC80 fell in the range of 1 to 20 µM (≈ 0.487 to 9.73 µg/mL).

As to `CCc1nc2cc(Cl)ccn2c1C(=O)NCc1ccc(C(=O)N(C)c2ccc(F)cc2)cc1` [Compound 306], the MIC80 was in the range of 1 to 20 µM (≈ 0.465 to 9.3 µg/mL).

For the molecule `CCc1nc2cc(C)ccn2c1C(=O)NCc1ccc(N2CCN(c3ccc(C(F)(F)F)cc3)CC2)cc1` [Compound 61], the MIC80 is below 1 µM.

As to `CCc1nc2c(C(F)(F)F)cccn2c1C(=O)NCc1ccc(N2CCC(c3ccc(C)cc3)CC2)cc1` [Compound 25], the MIC80 lay within 1 to 20 µM (≈ 0.521 to 10.4 µg/mL).

On to `CCc1nc2cc(Cl)ccn2c1C(=O)NCc1ccc(N2CCN(c3ccc(OC)cc3)CC2)cc1` [Compound 46], for which the MIC80 was below 1 µM.

`CCc1nc2c(C(F)(F)F)cccn2c1C(=O)NCc1ccc(N2CCN(c3ccc(C)cc3)CC2)cc1` [Compound 99]: the MIC80 is 1 to 20 µM (≈ 0.522 to 10.4 µg/mL).

In the case of `CCc1nc2cc(F)ccn2c1C(=O)NCc1ccc(N2CCN(c3ccccc3)CC2)cc1` [Compound 69], the MIC80 was below 1 µM.

For `CCc1nc2c(OC)cccn2c1C(=O)NCc1ccc(N2CCC(c3ccc(C)cc3)CC2)cc1` [Compound 215], the MIC80 fell in the range of 1 to 20 µM (≈ 0.483 to 9.65 µg/mL).

Regarding `CCc1nc2ccc(Cl)cn2c1C(=O)NCc1ccc(N2CCN(c3ccc(Cl)cc3)CC2)cc1` [Compound 45], the MIC80 was below 1 µM.

Consider `CCc1nc2cc(OC)ccn2c1C(=O)NCc1ccc(N2CCC(c3ccc(Cl)cc3)CC2)cc1` [Compound 21], for which the MIC80 was below 1 µM.

As to `CCc1nc2c(Cl)cccn2c1C(=O)NCc1ccc(N2CCC(c3ccc(F)cc3)CC2)cc1` [Compound 183], the MIC80 is below 1 µM.

For `CCc1nc2ccc(Br)cn2c1C(=O)NCc1ccc(N2CCC(c3ccc(OC(F)(F)F)cc3)CC2)cc1` [Compound 187], the MIC80 was below 1 µM.

Take `Cc1nc2ccc(Cl)cn2c1C(=O)NCc1ccc(N2CCC(c3ccc(F)cc3)CC2)cc1` [Compound 325]: the MIC80 was below 1 µM.

With `CCc1nc2c(Cl)cccn2c1C(=O)NCc1ccc(N2CCC(c3ccc(C(F)(F)F)cc3)CC2)cc1` [Compound 119], the MIC80 was below 1 µM.

As for `CCc1nc2ccccn2c1C(=O)NCc1ccc(N2CCN(c3ccc(OC)cc3)CC2)cc1` [Compound 30], the MIC80 was below 1 µM.

Consider `CCc1nc2cc(F)ccn2c1C(=O)NCc1ccc(N2CCN(c3ccc(F)cc3)CC2)cc1` [Compound 82], for which the MIC80 was below 1 µM.

For `CCc1nc2cc(Cl)ccn2c1C(=O)NCc1ccc(NC(=O)NC(C)(C)C)cc1` [Compound 277], the MIC80 is above 20 µM.

`CCc1nc2c(OC)cccn2c1C(=O)NCc1ccc(N2CCN(c3ccc(C)cc3)CC2)cc1` [Compound 104]: the MIC80 was 1 to 20 µM (≈ 0.484 to 9.67 µg/mL).

`CCc1nc2ccc(C)cn2c1C(=O)NCc1ccc(N2CCC(c3ccc(F)cc3)CC2)cc1` [Compound 19]: the MIC80 is below 1 µM.

As for `CCc1nc2ccc(C(F)(F)F)cn2c1C(=O)NCc1ccc(N2CCC(c3ccccc3)CC2)cc1` [Compound 178], the MIC80 was below 1 µM.

Regarding `Cc1nc2ccc(Cl)cn2c1C(=O)NCc1ccc(N2CCC(c3ccc(C(F)(F)F)cc3)CC2)cc1` [Compound 327], the MIC80 was below 1 µM.

As for `CCc1nc2cc(Cl)ccn2c1C(=O)NCc1ccc(N2CCC(c3ccc(C(F)(F)F)cc3)CC2)cc1` [Compound 13], the MIC80 is below 1 µM.

Consider `Cc1ccc(C2CCN(c3ccc(CNC(=O)c4c(C)nc5ccc(F)cn45)cc3)CC2)cc1` [Compound 314], for which the MIC80 was below 1 µM.

With `CCc1nc2ccccn2c1C(=O)NCc1ccc(N2CCN(c3ccc(C)cc3)CC2)cc1` [Compound 28], the MIC80 is below 1 µM.

Turning to `Cc1nc2cc(F)ccn2c1C(=O)NCc1ccc(N2CCC(c3ccc(Cl)cc3)CC2)cc1` [Compound 348], the MIC80 is below 1 µM.

As to `CCc1nc2ccc(OC)cn2c1C(=O)NCc1ccc(N2CCC(c3ccc(C)cc3)CC2)cc1` [Compound 127], the MIC80 is below 1 µM.

Turning to `CCc1nc2ccc(Cl)cn2c1C(=O)NCc1ccc(N2CCC(C(=O)c3ccc(OC(F)(F)F)cc3)CC2)cc1` [Compound 241], the MIC80 is below 1 µM.

In the case of `Cc1nc2ccc(Cl)cn2c1C(=O)NCc1ccc(N2CCC(c3ccc(OC(F)(F)F)cc3)CC2)cc1` [Compound 328], the MIC80 was below 1 µM.

As for `CCc1nc2c(F)cccn2c1C(=O)NCc1ccc(N2CCN(c3ccc(C(F)(F)F)cc3)CC2)cc1` [Compound 161], the MIC80 is below 1 µM.

As for `CCc1nc2c(C)cccn2c1C(=O)NCc1ccc(N2CCC(c3ccc(F)cc3)CC2)cc1` [Compound 225], the MIC80 is below 1 µM.

Regarding `CCc1nc2cc(Br)ccn2c1C(=O)NCc1ccc(N2CCC(c3ccc(Cl)cc3)CC2)cc1` [Compound 134], the MIC80 was below 1 µM.

Consider `CCc1nc2ccc(Cl)cn2c1C(=O)NCc1ccc(N2CCC(O)(c3ccccc3)CC2)cc1` [Compound 239], for which the MIC80 was below 1 µM.

`CCc1nc2ccc(Cl)cn2c1C(=O)NCc1ccc2cc[nH]c2c1` [Compound 273]: the MIC80 is below 1 µM.

`CCc1nc2cc(C)ccn2c1C(=O)NCc1ccc(N2CCN(c3ccc(C)cc3)CC2)cc1` [Compound 141]: the MIC80 is below 1 µM.

With `CCc1nc2cc(Br)ccn2c1C(=O)NCc1ccc(N2CCN(c3ccc(OC)cc3)CC2)cc1` [Compound 208], the MIC80 is below 1 µM.

Regarding `CCc1nc2ccc(Cl)cn2c1C(=O)NCc1ccc(N2CCN(c3ccc(C(F)(F)F)cc3)CC2)cc1` [Compound 48], the MIC80 was below 1 µM.

For `CCc1nc2ccc(Cl)cn2c1C(=O)NCc1ccc(N2CCN(c3ccc(OC)cc3)CC2)cc1` [Compound 33], the MIC80 is below 1 µM.

Regarding `CCc1nc2cc(C)ccn2c1C(=O)NCc1ccc(N2CCC(c3ccc(C)cc3)CC2)cc1` [Compound 231], the MIC80 was below 1 µM.

For the molecule `CCc1nc2cc(F)ccn2c1C(=O)NCc1ccc(N2CCC(c3ccc(C(F)(F)F)cc3)CC2)cc1` [Compound 164], the MIC80 is below 1 µM.

For the molecule `CCc1nc2cc(OC)ccn2c1C(=O)NCc1ccc(N2CCC(c3ccccc3)CC2)cc1` [Compound 18], the MIC80 was below 1 µM.

Regarding `CCc1nc2c(F)cccn2c1C(=O)NCc1ccc(N2CCN(c3ccccc3)CC2)cc1` [Compound 70], the MIC80 is below 1 µM.

Take `CCc1nc2c(Cl)cccn2c1C(=O)NCc1ccc(N2CCC(c3ccc(Cl)cc3)CC2)cc1` [Compound 53]: the MIC80 is below 1 µM.

`CCc1nc2ccc(C)cn2c1C(=O)NCc1ccc(N2CCN(c3ccc(OC(F)(F)F)cc3)CC2)cc1` [Compound 55]: the MIC80 was below 1 µM.

For the molecule `CCc1nc2cc(Cl)ccn2c1C(=O)NCc1ccc(-c2ccc(C(=O)O)cc2)cc1` [Compound 335], the MIC80 is below 1 µM.

`CCc1nc2ccccn2c1C(=O)NCc1ccc(N2CCN(c3ccc(C(F)(F)F)cc3)CC2)cc1` [Compound 29]: the MIC80 is below 1 µM.

Consider `CCc1nc2c(C(F)(F)F)cccn2c1C(=O)NCc1ccc(N2CCN(c3ccc(F)cc3)CC2)cc1` [Compound 198], for which the MIC80 lay within 1 to 20 µM (≈ 0.526 to 10.5 µg/mL).

As to `CCc1nc2ccc(Cl)cn2c1C(=O)NCc1ccc(N2CCC(c3ccc(C=O)cc3)CC2)cc1` [Compound 346], the MIC80 is below 1 µM.

In the case of `Cc1nc2ccc(F)cn2c1C(=O)NCc1ccc(N2CCC(c3ccc(F)cc3)CC2)cc1` [Compound 313], the MIC80 is below 1 µM.
